Assays:
Assay type in all cases: in vivo
[1] = system: sedge, umbrella (small-flower umbrella sedge, Cyperus difformis); assay: Test B flooded paddy test, visual plant response rating 0-100; conditions: 250 g ai/ha, Flood, applied to paddy water, evaluated after 13 days
Outline: (§1)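 Treatment occurs at the 2-leaf stage by adding compound to floodwater standing 3 cm above the soil, a level kept for the whole test. Plants stay in the greenhouse 13 days before visual comparison with controls.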

[2] = system: ducksalad (Heteranthera limosa); assay: as above; conditions: 250 g ai/ha, Flood, applied to paddy water, evaluated after 13 days
Outline: as §1

[3] = system: barnyardgrass (Echinochloa crusgalli); assay: as above; conditions: 250 g ai/ha, Flood, applied to paddy water, evaluated after 13 days
Outline: as §1

[4] = system: rice (Oryza sativa); assay: as above; conditions: 250 g ai/ha, Flood, applied to paddy water, evaluated after 13 days
Outline: as §1

[5] = system: oat, wild (wild oat, Avena fatua); assay: Test A postemergence application, visual injury rating 0-100
Outline: (§2)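 Rating: visual, day 10, untreated plants as reference, 0 no effect to 100 full control. Plants were in loam-sand and were treated either preemergence via directed soil spray or postemergence at the one- to two-leaf stage.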

[6] = system: soybean (Glycine max); assay: as above
Outline: as §2

[7] = system: corn (Zea mays); assay: as above
Outline: as §2

[8] = system: palmer (palmer amaranth, palmer pigweed, Amaranthus palmeri); assay: as above
Outline: as §2

[9] = system: galium (catchweed bedstraw, Galium aparine); assay: as above
Outline: as §2

[10] = system: green foxtail (Setaria viridis); assay: as above
Outline: as §2

[11] = system: ragweed (common ragweed, Ambrosia artemisiifolia); assay: as above
Outline: as §2

[12] = system: ryegrass, Italian (italian ryegrass, Lolium multiflorum); assay: as above
Outline: as §2

[13] = system: wheat (Triticum aestivum); assay: as above
Outline: as §2

[14] = system: blackgrass (Alopecurus myosuroides); assay: as above
Outline: as §2

[15] = system: kochia (Bassia scoparia); assay: as above
Outline: as §2

[16] = system: barnyardgrass (Echinochloa crus-galli); assay: as above
Outline: as §2

[17] = system: oat, wild (wild oat, Avena fatua); assay: Test A preemergence soil spray, visual injury rating 0-100; conditions: 10 days
Outline: as §2

[18] = system: soybean (Glycine max); assay: as above; conditions: 10 days
Outline: as §2

[19] = system: corn (Zea mays); assay: as above; conditions: 10 days
Outline: as §2

[20] = system: palmer (palmer amaranth, palmer pigweed, Amaranthus palmeri); assay: as above; conditions: 10 days
Outline: as §2

[21] = system: green foxtail (Setaria viridis); assay: as above; conditions: 10 days
Outline: as §2

[22] = system: ragweed (common ragweed, Ambrosia artemisiifolia); assay: as above; conditions: 10 days
Outline: as §2

[23] = system: ryegrass, Italian (italian ryegrass, Lolium multiflorum); assay: as above; conditions: 10 days
Outline: as §2

[24] = system: wheat (Triticum aestivum); assay: as above; conditions: 10 days
Outline: as §2

[25] = system: blackgrass (Alopecurus myosuroides); assay: as above; conditions: 10 days
Outline: as §2

[26] = system: kochia (Bassia scoparia); assay: as above; conditions: 10 days
Outline: as §2

[27] = system: barnyardgrass (Echinochloa crus-galli); assay: as above; conditions: 10 days
Outline: as §2

[28] = 62 g ai/ha, postemergence, 10 days, 0 = no effect, 100 = complete control
[29] = Postemergence, 16 g ai/ha, greenhouse 10 days, 0 no effect, 100 complete control
[30] = 62 g ai/ha, 0 = no effect, 100 = complete control

In the case of C=CC1(C(=O)NC2COC(C(=O)OC)C2)CN(c2cc(F)cc(F)c2)C(=O)O1 (centres unmarked) [Compound 170], the “Plant response rating, Sedge, Umbrella (0 to 100 scale, 0 is no effect and 100 is complete control)” value [1] is reported as 0, the “Plant response rating, Ducksalad (0 to 100 scale, 0 is no effect and 100 is complete control)” value [2] is reported as 0 and the “Plant response rating, Barnyardgrass (0 to 100 scale, 0 is no effect and 100 is complete control)” value [3] is reported as 0. The “Plant response rating, Rice (0 to 100 scale, 0 is no effect and 100 is complete control)” value [4] was 0, the “Oat, Wild plant response rating (0-100)” value [5, 28] was 0 and the “Oat, Wild plant response rating (0 to 100 scale)” value [5, 29] was 0. For the same molecule, the “Soybean plant response rating (0-100)” value [6, 28] was 30, the “Soybean plant response rating (0 to 100 scale)” value [6, 29] was 0 and the “Corn plant response rating (0-100)” value [7, 28] was 0. The “Corn plant response rating (0 to 100 scale)” value [7, 29] was 0, the “Pigweed, Palmer plant response rating (0-100)” value [8, 28] was 0 and the “Pigweed, Palmer plant response rating (0 to 100 scale)” value [8, 29] was 0. For the same molecule, the “Galium plant response rating (0-100)” value [9, 28] was 40, the “Galium plant response rating (0 to 100 scale)” value [9, 29] was 0 and the “Foxtail, Green plant response rating (0-100)” value [10, 28] was 0. For the same molecule, the “Foxtail, Green plant response rating (0 to 100 scale)” value [10, 29] was 0, the “Ragweed plant response rating (0-100)” value [11, 28] was 0 and the “Ragweed plant response rating (0 to 100 scale)” value [11, 29] was 0. For the same molecule, the “Ryegrass, Italian plant response rating (0-100)” value [12, 28] was 0, the “Ryegrass, Italian plant response rating (0 to 100 scale)” value [12, 29] was 0 and the “Wheat plant response rating (0-100)” value [13, 28] was 0. For the same molecule, the “Wheat plant response rating (0 to 100 scale)” value [13, 29] was 0, the “Blackgrass plant response rating (0-100)” value [14, 28] was 0 and the “Blackgrass plant response rating (0 to 100 scale)” value [14, 29] was 0. The “Kochia plant response rating (0-100)” value [15, 28] was 0, the “Kochia plant response rating (0 to 100 scale)” value [15, 29] was 0 and the “Barnyardgrass plant response rating (0-100)” value [16, 28] was 30. For the same molecule, the “Barnyardgrass plant response rating (0 to 100 scale)” value [16, 29] was 0, the “Oat, Wild plant response rating” value ([17]; 16 g ai/ha, 0 to 100 scale) was 0 and the “Oat, Wild plant response rating (0-100)” value [17, 30] was 0. The “Soybean plant response rating” value ([18]; 16 g ai/ha, 0 to 100 scale) was 0, the “Soybean plant response rating (0-100)” value [18, 30] was 0 and the “Corn plant response rating” value ([19]; 16 g ai/ha, 0 to 100 scale) was 0. For the same molecule, the “Corn plant response rating (0-100)” value [19, 30] was 0, the “Pigweed, Palmer plant response rating” value ([20]; 16 g ai/ha, 0 to 100 scale) was 0 and the “Pigweed, Palmer plant response rating (0-100)” value [20, 30] was 0. For the same molecule, the “Foxtail, Green plant response rating” value ([21]; 16 g ai/ha, 0 to 100 scale) was 0, the “Foxtail, Green plant response rating (0-100)” value [21, 30] was 0 and the “Ragweed plant response rating” value ([22]; 16 g ai/ha, 0 to 100 scale) was 0. The “Ragweed plant response rating (0-100)” value [22, 30] was 0, the “Ryegrass, Italian plant response rating” value ([23]; 16 g ai/ha, 0 to 100 scale) was 10 and the “Ryegrass, Italian plant response rating (0-100)” value [23, 30] was 20. The “Wheat plant response rating” value ([24]; 16 g ai/ha, 0 to 100 scale) was 0, the “Wheat plant response rating (0-100)” value [24, 30] was 0 and the “Blackgrass plant response rating” value ([25]; 16 g ai/ha, 0 to 100 scale) was 0. The “Blackgrass plant response rating (0-100)” value [25, 30] was 0, the “Kochia plant response rating” value ([26]; 16 g ai/ha, 0 to 100 scale) was 0 and the “Kochia plant response rating (0-100)” value [26, 30] was 0. For the same molecule, the “Barnyardgrass plant response rating” value ([27]; 16 g ai/ha, 0 to 100 scale) was 0 and the “Barnyardgrass plant response rating (0-100)” value [27, 30] was 0.

— US20260285850A1, “SUBSTITUTED OXAZOLIDINONES AND IMIDAZOLINONES AS HERBICIDES” (FMC CORPORATION, priority 2023, published 2026)
